# Where two headings read alike, the source gives them in different places.
# Tests used:
# [1] = In vivo rat bone marrow micronucleus assay; design: species or system CD® (SD) IGS BR rat; settings: CD (SD) IGS BR, rat, in vivo, once by oral gavage, dose range-finding study, read-out: maximum tolerated dose
# Description: (§1) The objective of this study was to evaluate the test article, prostratin, for in vivo clastogenic activity and/or disruption of the mitotic apparatus by detecting micronuclei in polychromatic erythrocytes (PCE) in CD® (SD) IGS BR rat bone marrow.
# (§2) In the dose range-finding study, the test article was dissolved in ethanol followed by dilution with 0.9% Sodium Chloride for Injection to achieve a final ethanol:saline vehicle (0.8:99.2 v/v) at the appropriate dosing concentrations. The formulations were administered once by oral gavage to three males and three females per dose level. The animals were dosed at 0.4, 0.5, 2, or 5 mg/kg and observed for up to 2 days after dosing for toxic signs and/or mortality.
# (§3) Based on the results of the dose range-finding study, the maximum tolerated dose was estimated to be 2.4 mg/kg in the male animals and 2 mg/kg in the female animals. In the micronucleus assay, the test article was dissolved in ethanol followed by dilution with 0.9% Sodium Chloride for Injection to achieve a final ethanol:saline vehicle (0.8:99.2 v/v) at the appropriate dosing concentrations.
# (§4) Bone marrow was extracted and at least 2000 PCEs per animal were analyzed for the frequency of micronuclei. Cytotoxicity was assessed by scoring the number of PCEs and normochromatic erythrocytes (NCEs) in at least the first 500 total erythrocytes for each animal.
# [2] = system: polychromatic erythrocytes (PCE) in CD® (SD) IGS BR rat bone marrow; experiment: In vivo rat bone marrow micronucleus assay
# Description: as §1, §2, §3, §4
# [3] = Pharmacokinetics following intravenous and oral administration to rats; format: in vivo; settings: for Vd / half-life / bioavailability: male; for bioavailability: three male rats
# Description: In order to find out the best route of administration and the correct concentration of prostratin, the drug was administered as an intravenous infusion over three hours as well as a single and twice oral administration to 3 groups of rats. The goal of this experiment was to find out if greater amounts of prostratin can be administered over a longer period of time. This would enable obtaining median higher concentrations in the blood for a longer period of time that would be close to effective concentration found in in vitro studies.
# [4] = system: cultured human peripheral blood lymphocytes; experiment: Chromosomal aberrations in cultured human peripheral blood lymphocytes; format: cell-based
# Description: The objective of this in vitro assay was to evaluate the ability of prostratin to cause structural chromosomal aberrations in cultured human lymphocytes with and without an exogenous metabolic activation system.
# Dimethylsulfoxide (DMSO) was the vehicle of choice for this study. […] The stock solution and its dilutions were dosed using a dosing volume of 1% (10 μL/ml) and the vehicle control cultures were treated with 10.0 μL/ml of DMSO.
# In the initial chromosomal aberrations assay, the treatment period was for 3 hours with and without metabolic activation, and cultures were harvested ˜22 hours from the initiation of treatment. Replicate cultures of human whole blood lymphocytes were incubated with test article at 23.7, 33.9, 48.4, 69.2, 98.9, 141, 202, 288, 412, 588, 840, 1200, 1720, 2450, and 3500 μg/ml with and without metabolic activation. Cultures treated with concentrations of 412, 588, 840, and 1200 μg/ml without metabolic activation and 588, 840, 1200, and 1720 μg/ml with metabolic activation were analyzed for chromosomal aberrations.
# In the confirmatory chromosomal aberrations assay, the treatment period was ˜22 hours without metabolic activation and 3 hours with metabolic activation, and cultures were harvested ˜22 hours from the initiation of treatment. Replicate cultures of human whole blood lymphocytes were incubated with test article at 15.6, 31.3, 62.5, 125, 188, 250, 375, 500, 750, 1000, 1400, and 1700 μg/ml without metabolic activation and 250, 500, 1000, 1400, 1700, 2000, and 2500 μg/ml with metabolic activation. Cultures treated with concentrations of 125, 250, 500, and 1400 μg/ml without metabolic activation and 1400, 1700, 2000, and 2500 μg/ml with metabolic activation were analyzed for chromosomal aberrations.
# For all treatment conditions, the vehicle and negative control cultures were within the expected range and the historical control data and the positive control cultures induced significant increases in chromosomal aberrations.
# [5] = Single-dose range-finding study in rats; format: in vivo, Fisher rats; settings: male, Fisher, rat, in vivo, intravenous; rats, single bolus dose; read-out: Maximum Tolerated Dose (MTD)
# Description: (§5) A single bolus dose of prostratin (0, 0.05, 0.1, 0.2, 0.4, and 0.8 mg/kg which correspond to 0, 0.3, 0.6, 1.2, 2.4, and 4.8 mg/m^2) was administered to Fisher rats (3 males/group) to determine the maximally tolerated dose and relative drug toxicity. […] Clinical signs of toxicity included decreased activity, prostration, tremors, and altered respiratory rate (decreased in some cases, increased in others). […] In the 0.4 mg/kg dose group, ALT and AST serum levels were 2- and 3-fold higher, respectively, than group mean ALT and AST values for control rats, and potassium level was decreased in 61% of the value obtained for control group animals. […] The Maximum Tolerated Dose (MTD) in rats is between 0.2-0.4 mg/kg dose of prostratin.
# Fisher rats = experiment: Single-dose range-finding study in rats; format: in vivo; settings: for mortality (died on Day 1 or Day 2): male Fisher rats
# Description: as §5
# [6] = all three females, 1.2-mg/kg oral dose, males 2.4 mg/kg
# [7] = female Animal No. C24047, 0.8 mg/kg i.v. infusion
# [8] = female Animal No. C24048, 0.8 mg/kg i.v. infusion
# [9] = female Animal No. C24049, 0.8 mg/kg i.v. infusion
# [10] = female Animal No. C24050, 1.2-mg/kg oral dose, males 2.4 mg/kg
# [11] = female Animal No. C24055, Group 3
smiles,measurement,setting,value
"CC(=O)O[C@@]12C[C@@H](C)[C@@]3(O)[C@@H](C=C(CO)C[C@]4(O)C(=O)C(C)=C[C@@H]34)[C@@H]1C2(C)C [prostratin, 12-deoxyphorbol 13-acetate]",MTD,[1]; female rats,2 mg/kg
same,MTD,[1]; male rats,2.4 mg/kg
same,micronucleated PCEs,"[2]; 0.5, 1, or 2 mg/kg for females, 0.6, 1.2, and 2.4 mg/kg for males",did not induce statistically significant increases
same,cytotoxicity to the bone marrow (PCE:NCE ratios),[2]; any dose of the test article,not cytotoxic
same,clinical observations,"[2]; female animals, 2 mg/kg, approximately one hour post-dose, mortality, irregular respiration, piloerection, and/or recumbency",signs of clinical toxicity
same,"rat bone marrow micronucleus assay, overall","[2]; rat, in vivo",negative
same,mean AUC0-1.5 relative to mean value for the males,[3]; [6],~5.5 fold
same,mean Cmax relative to mean value for the males,[3]; [6],approximately 6.2 fold
same,AUC0-2 relative to mean AUC0-2 for the males,[3]; [7],approximately 4.2 fold
same,plasma concentration at approximately 2 hours relative to mean male Cmax,[3]; [7],approximately 3.8 fold
same,AUC0-2 relative to mean AUC0-2 for the males,[3]; [8],approximately 1.4 fold
same,plasma concentration at approximately 2 hours relative to mean male Cmax,[3]; [8],approximately 1.6 fold
same,AUC0-3.083 relative to mean value for the males,[3]; [9],~2.6 fold
same,Cmax relative to mean value for the males,[3]; [9],approximately 3.7 fold
same,AUC0-1.5 relative to mean value for the males,[3]; [10],~8.2 fold
same,Cmax relative to mean value for the males,[3]; [10],approximately 8.9 fold
same,AUC0-4 relative to mean value for the males,"[3]; female Animal No. C24052, 1.2-mg/kg oral dose, males 2.4 mg/kg",approximately 9.6 fold
same,Cmax relative to mean value for the three males,"[3]; female Animal No. C24055, 1.8 mg/kg then 1.0 mg/kg oral, Group 3",approximately 6.0 fold
same,AUC0-1.5 relative to mean value for the three males,[3]; [11],~5.9 fold
same,AUC0-4 relative to mean value for the three males,[3]; [11],~8.2 fold
same,AUC0-10 relative to mean AUC0-10 for the males,"[3]; last female of Group 2, 1.2-mg/kg oral dose, males 2.4 mg/kg",approximately 6.1 fold
same,increase in exposure (mean AUC0-10) of 1.8-mg/kg BID versus single 2.4-mg/kg oral dose,"[3]; male rats, Groups 3 and 2",approximately 1.5 fold
same,Vd,"[3]; rat, plasma, iv, 0.8 mg/kg, male rats, 0.8 mg/kg i.v. infusion, read-out: mean Vss",2.22 L/kg
same,Vd,"[3]; rat, plasma, iv, 0.8 mg/kg, male rats, 0.8 mg/kg i.v. infusion, read-out: mean Vz",6.41 L/kg
same,half-life,"[3]; rat, plasma, iv, 0.8 mg/kg, male rats, after 3-hour intravenous infusion 0.8 mg/kg, read-out: mean t1/2 (converted)",2.49 h
same,half-life,"[3]; rat, plasma, po, 1.8 mg/kg, male Animal No. C24046, Group 3, 1.8 mg/kg BID oral, read-out: t1/2 (converted)",7.47 h
same,half-life,"[3]; rat, plasma, po, 1.8 mg/kg, male rats, 1.8 mg/kg BID oral, after the second dose, read-out: mean t1/2 (converted)",4.07 h
same,half-life,"[3]; rat, plasma, po, 2.4 mg/kg, male rats, single 2.4-mg/kg oral dose, read-out: mean t1/2 (converted)",2.08 h
same,bioavailability,"[3]; rat, plasma, po, 2.4 mg/kg, single 2.4-mg/kg oral dose, read-out: Bioavailability (% F), mean",13.3%
same,bioavailability,"[3]; rat, plasma, po, 2.4 mg/kg, single 2.4-mg/kg oral dose, read-out: Bioavailability (% F), range",7.7 to 23.1%
same,clearance,"[3]; rat, plasma, iv, male rats, 0.8 mg/kg i.v. infusion, read-out: mean CL (converted)",34.2 mL/min/kg
same,concentration at 4 h,"[3]; rat, plasma, male rats, 1.8 mg/kg oral, Group 3, read-out: mean plasma concentration just prior to the second oral dose at 4 hours",17.9 ng/mL
same,Cmax,"[3]; rat, plasma, male rats, 0.8-mg/kg intravenous infusion over 3 hours",159 ng/mL
same,Cmax,"[3]; rat, plasma, male rats, 1.8-mg/kg oral doses BID, following the second dose",55.1 ng/mL
same,Tmax,"[3]; rat, plasma, male rats, 1.8-mg/kg oral doses BID, read-out: time at which Cmax was observed",0.25 to 0.5 h
same,Cmax,"[3]; rat, plasma, male rats, single 2.4-mg/kg oral dose",49.7 ng/mL
same,concentration at 4 h,"[3]; rat, plasma, male rats, single 2.4-mg/kg oral dose, Group 2, read-out: mean plasma concentration at 4 hours postdose",11.5 ng/mL
same,"cells with chromosomal aberrations, polyploidy, or endoreduplication","[4]; confirmatory assay, ~22 hours without and 3 hours with metabolic activation, 125-1400 μg/ml without, 1400-2500 μg/ml with",No significant increase
same,"cells with chromosomal aberrations, polyploidy, or endoreduplication","[4]; initial assay, 3 hours with and without metabolic activation, 412-1200 μg/ml without, 588-1720 μg/ml with",No significant increase
same,"induction of chromosomal aberrations, overall",[4]; without and with an exogenous metabolic activation system,negative
same,MTD,[5],0.2 to 0.4 mg/kg
same,albumin (ALB) level relative to control,Fisher rats; 0.2 mg/kg dose group,88%
same,ALT serum level versus control,Fisher rats; 0.4 mg/kg dose group,2 fold
same,AST serum level versus control,Fisher rats; 0.4 mg/kg dose group,3 fold
same,albumin (ALB) level relative to control,Fisher rats; 0.4 mg/kg dose group,76%
same,potassium level relative to control,Fisher rats; 0.4 mg/kg dose group,61%
same,reversibility of adverse events,"Fisher rats; PLT, ALT, AST, ALB within normal range by day 8",reversible
same,increase in neutrophile counts,"Fisher rats; day 3, 0.4 mg/kg dose group",1.7 fold
same,decrease in platelet (PLT) counts compared to control,"Fisher rats; day 3, 0.4 and 0.2 mg/kg dose groups",62-68%
same,mortality (died on Day 1 or Day 2),Fisher rats; single bolus 0.4 mg/kg,two of the three
same,mortality (died on Day 1 or Day 2),Fisher rats; single bolus 0.8 mg/kg,3/3

# Reference: patent US20110224297A1, “Methods of administering prostratin and structural analogs thereof” (priority 2008, published 2011)
